The source made the active and inactive calls. No rule for the calls is given here.
Tested on: GENE-TOX genotoxicity assays, various organisms and cells
Assay: GENE-TOX mutagenicity studies
Conditions: for call: Assay Type: In vivo carcinogenicity studies
[1] = Species/Cell Type: Escherichia coli WP2 UVRA, Assay Type: Tryptophan reverse gene mutation, Assay Code: WPU+D, Dose Response: With dose response, Evaluation Type: Evaluation A (Pre-1980)
[2] = Species/Cell Type: Nonhuman, Assay Type: Sister-chromatid exchange (SCE) in vitro, Assay Code: SC2+D, Dose Response: With dose response, Evaluation Type: Evaluation B (Post-1980)
[3] = Species/Cell Type: Salmonella typhimurium (one or more of the five standard strains: TA98, TA100, TA1535, TA1537, and TA1538), Assay Type: Histidine reverse gene mutation, Ames assay, Assay Code: SAL+, Evaluation Type: Evaluation A (Pre-1980)
[4] = Species/Cell Type: Human lymphocytes, Assay Type: Sister-chromatid exchange (SCE) in vitro, Assay Code: SCL+D, Dose Response: With dose response, Evaluation Type: Evaluation B (Post-1980)
[5] = Species/Cell Type: Human, Assay Type: Sister-chromatid exchange (SCE) in vitro, Assay Code: SC1+D, Dose Response: With dose response, Evaluation Type: Evaluation B (Post-1980)
[6] = Species/Cell Type: Salmonella typhimurium, Assay Type: Forward and reverse gene mutation, host-mediated assay, Assay Code: HMA-, Evaluation Type: Evaluation A (Pre-1980)
[7] = Species/Cell Type: Saccharomyces cerevisiae, Assay Type: Mitotic recombination or gene conversion, Assay Code: YEH-, Evaluation Type: Evaluation A (Pre-1980)

COCC(O)Cn1ccnc1[N+](=O)[O-] (stereo unspecified)
mutagenic call [1]: active; positive
mutagenic call (Species/Cell Type: Mouse (C3H/10T1/2) cells, Assay Type: Cell transformation, Assay Code: CTH+D, Dose Response: With dose response, Evaluation Type: Evaluation A (Pre-1980)): active; positive
mutagenic call [2]: active; positive
mutagenic call (Species/Cell Type: Nonhuman, Assay Type: Sister-chromatid exchange (SCE) in vivo, Assay Code: SC3T, Evaluation Type: Evaluation B (Post-1980)): no conclusion
mutagenic call [3]: active; positive

C[C@]12CC[C@@H]3c4ccc(O)cc4CC[C@H]3[C@@H]1CCC2=O
call (Species/Cell Type: Nonhuman, Assay Code: CCG+, Evaluation Type: Evaluation A (Pre-1980)): active; positive

O=c1c(=O)c2cc3ccccc3c3ccc4cccc1c4c23
mutagenic call (Species/Cell Type: Chinese hamster lung (V79) cells, Assay Type: Forward gene mutation at the HPRT or ouabain locus, Assay Code: V79-, Evaluation Type: Evaluation A (Pre-1980)): inactive; negative
mutagenic call (Species/Cell Type: Salmonella typhimurium (one or more of the five standard strains: TA98, TA100, TA1535, TA1537, and TA1538), Assay Type: Histidine reverse gene mutation, Ames assay, Assay Code: SALT, Evaluation Type: Evaluation A (Pre-1980)): no conclusion

CC(C)OC(N)=O
mutagenic call (Species/Cell Type: Nonhuman, Assay Type: Sister-chromatid exchange (SCE) in vivo, Assay Code: SC3+D, Dose Response: With dose response, Evaluation Type: Evaluation B (Post-1980)): active; positive

c1ccc(C2CO2)cc1 (stereo unspecified)
mutagenic call (Species/Cell Type: Chinese hamster lung (V79) cells, Assay Type: Forward gene mutation at the HPRT or ouabain locus, Assay Code: V79+, Evaluation Type: Evaluation A (Pre-1980)): active; positive
mutagenic call (Species/Cell Type: Drosophila melanogaster, Assay Type: Sex-linked recessive lethal gene mutation, Assay Code: SRL+, Evaluation Type: Evaluation A (Pre-1980)): active; positive
mutagenic call [1]: active; positive
mutagenic call (Species/Cell Type: Human diploid fibroblasts, Assay Type: Unscheduled DNA synthesis (UDS) in vitro, DNA effects, Assay Code: UDH+, Evaluation Type: Evaluation A (Pre-1980)): active; positive
mutagenic call (Species/Cell Type: Human lymphocytes, Assay Type: Micronucleus test in vitro, chromosome aberrations, Assay Code: MN7+, Evaluation Type: Evaluation A (Pre-1980)): active; positive
mutagenic call [4]: active; positive
mutagenic call [5]: active; positive
mutagenic call (Species/Cell Type: Mammalian polychromatic erythrocytes, Assay Type: Micronucleus test, chromosome aberrations, Assay Code: MNTT, Evaluation Type: Evaluation A (Pre-1980)): no conclusion
call (Species/Cell Type: Nonhuman, Assay Code: CCG+L, Evaluation Type: Evaluation A (Pre-1980)): active; positive
mutagenic call (Species/Cell Type: Nonhuman, Assay Type: Sister-chromatid exchange (SCE) in vivo, Assay Code: SC3+, Evaluation Type: Evaluation B (Post-1980)): active; positive
mutagenic call (Species/Cell Type: Plant, Assay Type: Micronucleus test, chromosome aberrations, Assay Code: MNP+, Evaluation Type: Evaluation A (Pre-1980)): active; positive
mutagenic call (Species/Cell Type: Rodents, Sex: Male, Assay Type: Dominant lethal test, Assay Code: DLT-, Evaluation Type: Evaluation A (Pre-1980)): inactive; negative
mutagenic call (Species/Cell Type: Saccharomyces cerevisiae, Assay Type: Forward and reverse gene mutation, mitotic recombination and gene conversion, host-mediated assay, Assay Code: HME+, Evaluation Type: Evaluation A (Pre-1980)): active; positive
mutagenic call (Species/Cell Type: Saccharomyces cerevisiae, Assay Type: Mitotic recombination or gene conversion, Assay Code: YEC+*, Activation: With metabolic activation, Evaluation Type: Evaluation A (Pre-1980)): active; positive
mutagenic call [3]: active; positive
mutagenic call (Species/Cell Type: Schizosaccharomyces pombe, Assay Type: Forward gene mutation, Assay Code: YEY+/-*, Activation: With metabolic activation, Evaluation Type: Evaluation A (Pre-1980)): inactive; positive without activation, negative with activation

N[C@@H](CCC(=O)N[C@@H](CS)C(=O)NCC(=O)O)C(=O)O
mutagenic call (Species/Cell Type: Human lymphocytes, Assay Type: Sister-chromatid exchange (SCE) in vitro, Assay Code: SCLT, Evaluation Type: Evaluation B (Post-1980)): no conclusion
mutagenic call (Species/Cell Type: Human, Assay Type: Sister-chromatid exchange (SCE) in vitro, Assay Code: SC1T, Evaluation Type: Evaluation B (Post-1980)): no conclusion
mutagenic call [2]: active; positive

C[C@]12CC[C@H]3[C@@H](CCC4=CC(=O)CC[C@@]43C)[C@@H]1CC[C@@H]2OC(=O)CCC1CCCC1
mutagenic call (Species/Cell Type: Human, Sex: Male, Assay Type: Sperm morphology, Assay Code: SPH+, Evaluation Type: Evaluation A (Pre-1980)): active; positive

O=C(NO)c1ccccc1O
mutagenic call [3]: active; positive

O=P1(N(CCCl)CCCl)NC(OO)CCO1 (stereo unspecified)
mutagenic call [4]: active; positive
mutagenic call [5]: active; positive

NC(=O)C#CC(N)=O
mutagenic call (Species/Cell Type: Bacillus subtilis (H17 vs M45), Assay Type: Rec-assay, spot test, DNA effects (bacterial DNA repair), Assay Code: REW-, Evaluation Type: Evaluation A (Pre-1980)): inactive; negative

O=P(O)(O)O
mutagenic call (Species/Cell Type: Syrian hamster embryo (SA7/SHE) cells, Assay Type: Cell transformation, viral enhanced, Assay Code: CT7-, Evaluation Type: Evaluation A (Pre-1980)): inactive; negative

O=C1c2c(O)ccc(Cl)c2C(=O)c2c(O)ccc(Cl)c21
mutagenic call [3]: active; positive

CCCCNC(=O)n1c(NC(=O)OC)nc2ccccc21
mutagenic call (Species/Cell Type: Allium cepa, Assay Type: Chromosome aberrations, Assay Code: ALC+, Evaluation Type: Evaluation A (Pre-1980)): active; positive
mutagenic call (Species/Cell Type: Aspergillus nidulans, Assay Type: Aneuploidy, chromosome aberrations, Assay Code: ASN+, Evaluation Type: Evaluation A (Pre-1980)): active; positive
mutagenic call (Species/Cell Type: Aspergillus nidulans, Assay Type: Mitotic recombination, Assay Code: ASG-, Evaluation Type: Evaluation A (Pre-1980)): inactive; negative
mutagenic call (Species/Cell Type: Escherichia coli WP2, Assay Type: Tryptophan reverse gene mutation, Assay Code: WP2T, Evaluation Type: Evaluation A (Pre-1980)): no conclusion
mutagenic call (Species/Cell Type: Escherichia coli WP2 UVRA, Assay Type: Tryptophan reverse gene mutation, Assay Code: WPU+, Evaluation Type: Evaluation A (Pre-1980)): active; positive
mutagenic call (Species/Cell Type: Saccharomyces cerevisiae, Assay Type: Mitotic recombination or gene conversion, Assay Code: YEC-, Evaluation Type: Evaluation A (Pre-1980)): inactive; negative
mutagenic call [6]: inactive; negative

CC1=NN(c2ccc([N+](=O)[O-])cc2)C(=O)C1[N+](=O)[O-] (stereo unspecified)
mutagenic call (Species/Cell Type: Escherichia coli polA (W3119 vs P3478), Assay Type: Rec-assay, DNA effects (bacterial DNA repair), Assay Code: RE1+, Evaluation Type: Evaluation A (Pre-1980)): active; positive
mutagenic call [3]: active; positive

S=C=Nc1cccc2ccccc12
mutagenic call (Species/Cell Type: Escherichia coli polA (W3110 vs P3478), Assay Type: Rec-assay, DNA effects (bacterial DNA repair), Assay Code: RE2-, Evaluation Type: Evaluation A (Pre-1980)): inactive; negative
mutagenic call (Species/Cell Type: Escherichia coli polA (W3119 vs P3478), Assay Type: Rec-assay, DNA effects (bacterial DNA repair), Assay Code: RE1T, Evaluation Type: Evaluation A (Pre-1980)): no conclusion
mutagenic call (Species/Cell Type: Mouse (BALB/c-3T3) cells, Assay Type: Cell transformation, Assay Code: CTB+D, Dose Response: With dose response, Evaluation Type: Evaluation A (Pre-1980)): active; positive
call (Species/Cell Type: Nonhuman, Assay Code: CCGT, Evaluation Type: Evaluation A (Pre-1980)): no conclusion
mutagenic call [7]: inactive; negative
mutagenic call [6]: inactive; negative
mutagenic call (Species/Cell Type: Syrian hamster embryo (SHE) cells, Assay Type: Cell transformation, clonal assay, Assay Code: CTC-, Evaluation Type: Evaluation A (Pre-1980)): inactive; negative

Cc1ccc(S(N)(=O)=O)cc1
mutagenic call (Species/Cell Type: Drosophila melanogaster, Assay Type: Sex-linked recessive lethal gene mutation, Assay Code: SRLT, Evaluation Type: Evaluation A (Pre-1980)): no conclusion
mutagenic call (Species/Cell Type: Mammalian polychromatic erythrocytes, Assay Type: Micronucleus test, chromosome aberrations, Assay Code: MNTT, Evaluation Type: Evaluation B (Post-1980)): no conclusion

CC1(C)C(C=C(Cl)Cl)C1C(=O)OC(C#N)c1cccc(Oc2ccccc2)c1 (stereo unspecified)
mutagenic call (Species/Cell Type: Human diploid fibroblasts, Assay Type: Unscheduled DNA synthesis (UDS) in vitro, DNA effects, Assay Code: UDH-, Evaluation Type: Evaluation A (Pre-1980)): inactive; negative
mutagenic call (Species/Cell Type: Mammalian polychromatic erythrocytes, Assay Type: Micronucleus test, chromosome aberrations, Assay Code: MNT+, Evaluation Type: Evaluation B (Post-1980)): active; positive
mutagenic call [7]: inactive; negative

CC(=O)OC/C=C(C)/C=C/C=C(C)/C=C/C1=C(C)CCCC1(C)C
mutagenic call (Species/Cell Type: Human, Assay Type: Sister-chromatid exchange (SCE) in vitro, Assay Code: SC1+, Evaluation Type: Evaluation B (Post-1980)): active; positive
mutagenic call (Species/Cell Type: Nonhuman, Assay Type: Sister-chromatid exchange (SCE) in vitro, Assay Code: SC2T, Evaluation Type: Evaluation B (Post-1980)): no conclusion

C=COCC(F)(F)F
mutagenic call (Species/Cell Type: Nonhuman, Assay Type: Sister-chromatid exchange (SCE) in vitro, Assay Code: SC2+, Evaluation Type: Evaluation B (Post-1980)): active; positive
mutagenic call (Species/Cell Type: Salmonella typhimurium (one or more of the five standard strains: TA98, TA100, TA1535, TA1537, and TA1538), Assay Type: Histidine reverse gene mutation, Ames assay, Assay Code: SAL+*, Activation: With metabolic activation, Evaluation Type: Evaluation A (Pre-1980)): active; positive
mutagenic call (Species/Cell Type: Salmonella typhimurium and Escherichia coli, Assay Type: Forward and reverse gene mutation, body fluid assay, Assay Code: BFB-, Evaluation Type: Evaluation A (Pre-1980)): inactive; negative
